This passage reports tail flick latency results from PubChem BioAssay AID652108 (The Scripps Research Institute Molecular Screening Center, 2013).

SMILES strings stand for the structures.

Test systems include 1 hour; 1 week; 24 hours.
Holding throughout (assay): PubChem AID 652108
Details in all cases: mouse tail flick latency, kappa agonist-induced antinociception
On the technique in general: In hot-plate and tail-flick tests a longer latency is read as antinociception.

Take `COC(=O)c1cc(Br)cnc1N1CCC(NC2CCCCC2)C(O)C1` (configuration not stated): the tail flick latency came to 8.07 s with 1 hour; 4.68 s in the assay with 1 hour (baseline latency at 0 min); 6.04 s in the assay with 1 hour (latency at 30 min); 4.2 s with 1 hour (latency at 60 min); 12 s with 1 week; 3.47 s in the assay with 1 week (baseline latency at 0 min). Also, the tail flick latency in the assay on 1 week (latency at 30 min) stood at 8.5 s; in the assay with 1 week (latency at 60 min) it was 3.25 s; with 24 hours, 13.4 s; with 24 hours (baseline latency at 0 min), 4.23 s; in the assay with 24 hours (latency at 30 min), 9.11 s; in the assay with 24 hours (latency at 60 min), 5.2 s.
